Measurements: Sander's compilation of Henry's law constants (doi:10.1021/es00099a010)

Test: Henry solubility constant Hcp at 298.15 K (mol/(m3 Pa))
Settings: reference: Atlas et al. (1982)

| SMILES | Henry solubility constant Hcp |
| --- | --- |
| ClC(Cl)=C(c1ccc(Cl)cc1)c1ccc(Cl)cc1 [1,1-dichloro-2,2-bis-(4-chlorophenyl)-ethene] | 0.0081 |
| Clc1ccc(Cl)c(-c2cccc(Cl)c2Cl)c1 [2,2',3,5'-tetrachlorobiphenyl] | 0.013 |
| Clc1ccccc1-c1cccc(Cl)c1Cl [2,2',3-trichlorobiphenyl] | 0.012 |
| Clc1cc(Cl)c(-c2ccccc2Cl)c(Cl)c1 [2,2',4,6-tetrachlorobiphenyl] | 0.013 |
| Clc1ccc(Cl)c(-c2cc(Cl)ccc2Cl)c1 [2,2',5,5'-tetrachlorobiphenyl] | 0.011 |
| Clc1ccc(Cl)c(-c2ccccc2Cl)c1 [2,2',5-trichlorobiphenyl] | 0.0099 |
| Clc1cccc(-c2cccc(Cl)c2Cl)c1 [2,3,3'-trichlorobiphenyl] | 0.012 |
| Clc1ccc(-c2ccc(Cl)c(Cl)c2Cl)cc1 [2,3,4,4'-tetrachlorobiphenyl] | 0.012 |
| Clc1ccc(-c2cc(Cl)ccc2Cl)cc1 [2,4',5-trichlorobiphenyl] | 0.011 |
| Clc1ccc(-c2ccccc2Cl)cc1 [2,4'-dichlorobiphenyl] | 0.01 |
| Clc1ccc(-c2ccc(Cl)c(Cl)c2)cc1 [3,4,4'-trichlorobiphenyl] | 0.012 |
| ClC1=C(Cl)[C@]2(Cl)[C@@H]3[C@@H](Cl)[C@@H](Cl)C[C@@H]3[C@@]1(Cl)C2(Cl)Cl [cis-chlordane] | 0.011 |
| ClC1=C(Cl)[C@]2(Cl)[C@H]3[C@H](Cl)[C@@H](Cl)C[C@H]3[C@@]1(Cl)C2(Cl)Cl [trans-chlordane] | 0.0074 |
| ClC1C(Cl)C(Cl)C(Cl)C(Cl)C1Cl (stereo not drawn) [α-1,2,3,4,5,6-hexachlorocyclohexane] | 0.42 |
